From patent US8940756B2, “Dihydronaphthyridines and related compounds useful as kinase inhibitors for the treatment of proliferative diseases” (Deciphera Pharmaceuticals, Inc., priority 2012, dated 2015) come the findings set out here.

Experiment [1] deals with T1, c-KIT VVDV kinase (V559 and V560 deleted and D816V mutation, Seq ID no. 5) (Homo sapiens, UniProt P10721, D816V/DEL559-560).
T1 construct: This construct contains residues T544-V976 of cKit (except for the D816V mutation and the deletion of residues V559 and V560); GST (N); TEV cleavage site (N); purchased deCODE Biostructures
T1 sequence (P10721 with tags, fused parts or gaps DEL559-560/D816V): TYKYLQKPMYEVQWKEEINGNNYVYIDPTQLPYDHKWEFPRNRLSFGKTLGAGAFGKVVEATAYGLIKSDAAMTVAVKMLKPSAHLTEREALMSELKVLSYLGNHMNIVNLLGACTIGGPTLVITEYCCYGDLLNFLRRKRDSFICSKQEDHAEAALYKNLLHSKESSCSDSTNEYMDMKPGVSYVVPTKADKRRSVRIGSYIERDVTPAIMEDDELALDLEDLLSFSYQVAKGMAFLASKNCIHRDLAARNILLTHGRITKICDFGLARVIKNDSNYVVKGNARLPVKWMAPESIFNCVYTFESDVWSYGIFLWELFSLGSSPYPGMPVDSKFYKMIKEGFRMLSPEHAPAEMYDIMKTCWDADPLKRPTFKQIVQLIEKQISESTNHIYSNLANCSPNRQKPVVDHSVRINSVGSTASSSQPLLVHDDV
In words: cKIT-VVDV Kinase Assay. It is filed as biochemical. The note with it: enzymatic assay, ATP 200 uM. On the procedure: In this assay, the oxidation of NADH (measured by decrease in absorbance at 340 nm) was continuously monitored spectrophotometrically. […] The inhibition reaction was started by mixing serial diluted test compound with the above reaction mixture. The absorption at 340 nm was monitored continuously for 5 hours at 30° C. on Synergy 2 plate reader (BioTech). […] The protein construct was prepared by deCODE Biostructures using procedures known in the art. This construct contains […] of cKit (except for the D816V […]), an N-terminal tag, a GST-fusion sequence and a TEV cleavage site. This construct is identical to Seq ID no. 1 except for the D816V […].

The target of experiment [2] is Phospho-KIT (Tyr719) in GIST430 cells (Homo sapiens, UniProt P10721). The experiment in a line: GIST430 KIT Western Blot. It is filed as cell-based. The following applies: 4 hours, read-out: pKIT suppression by western blot analysi GIST430.
Phospho-KIT (Tyr719) in GIST430 cells, sequence (P10721 with tags, fused parts or gaps DEL560-576/V654A, form open): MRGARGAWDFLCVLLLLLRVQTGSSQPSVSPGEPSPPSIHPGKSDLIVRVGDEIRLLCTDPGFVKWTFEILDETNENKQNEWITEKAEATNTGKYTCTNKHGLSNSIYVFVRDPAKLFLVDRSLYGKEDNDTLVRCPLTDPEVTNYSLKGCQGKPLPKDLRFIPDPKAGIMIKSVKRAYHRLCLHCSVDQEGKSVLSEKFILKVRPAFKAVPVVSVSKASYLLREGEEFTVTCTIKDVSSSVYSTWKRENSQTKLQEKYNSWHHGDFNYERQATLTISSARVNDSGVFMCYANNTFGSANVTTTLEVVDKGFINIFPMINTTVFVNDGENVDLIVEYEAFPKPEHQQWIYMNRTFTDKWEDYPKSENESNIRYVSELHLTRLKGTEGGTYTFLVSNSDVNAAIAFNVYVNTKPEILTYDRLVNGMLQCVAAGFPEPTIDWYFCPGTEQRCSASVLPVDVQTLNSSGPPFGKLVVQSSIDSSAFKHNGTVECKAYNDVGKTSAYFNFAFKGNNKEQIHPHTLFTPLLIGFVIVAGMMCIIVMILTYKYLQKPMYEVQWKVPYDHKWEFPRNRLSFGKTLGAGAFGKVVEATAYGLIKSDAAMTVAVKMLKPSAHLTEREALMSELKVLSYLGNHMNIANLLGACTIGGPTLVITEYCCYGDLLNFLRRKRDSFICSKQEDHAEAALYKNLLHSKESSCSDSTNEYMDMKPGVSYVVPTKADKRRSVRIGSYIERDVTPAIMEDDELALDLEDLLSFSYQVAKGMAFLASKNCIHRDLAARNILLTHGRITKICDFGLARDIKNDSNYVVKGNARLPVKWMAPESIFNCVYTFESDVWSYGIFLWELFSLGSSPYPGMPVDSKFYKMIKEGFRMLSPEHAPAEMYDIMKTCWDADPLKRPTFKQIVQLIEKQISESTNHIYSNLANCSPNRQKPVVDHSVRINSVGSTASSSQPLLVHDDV
Experiment [3] has as its target T2, Phospho-KIT (Tyr719) in GIST T1 cells (Homo sapiens, UniProt P10721, DEL560-578).
T2 construct: endogenous in cells; host or cells: GIST T1
In words: GIST T1 KIT Western Blot. It is filed as cell-based. The note with it: 4 hours, read-out: pKIT suppression by western blot analysi GIST T1. The protocol:
GIST48, GIST430, and GIST882 cells were obtained from J. Fletcher (Brigham and Women's Hospital, Boston, Mass.). GIST T1 cells were obtained from B. Rubin (Cleveland Clinic, Cleveland, Ohio) and Professor Takahiro Taguchi (Kochi Medical School, Nankoku, Kochi, Japan). […] GIST430 cells were grown in Ham's F10 medium supplemented with 15% characterized fetal bovine serum (Invitrogen, Carlsbad, Calif.), 30 mg/L bovine pituitary extract (BD Biosciences, San Jose, Calif.), 0.5% Mito+ serum extender (BD Biosciences, San Jose, Calif.), 1 unit/mL penicillin G, 1 μg/ml streptomycin, and 0.29 mg/mL L-glutamine at 37° C., 5% CO2, 95% humidity. GIST T1 cells were grown in DMEM medium supplemented with 10% characterized fetal bovine serum (Invitrogen, Carlsbad, Calif.), 1 unit/mL penicillin G, 1 ng/ml streptomycin, and 0.29 mg/mL L-glutamine at 37° C., 5% CO2, and 95% humidity. […]
One hundred twenty-five thousand cells were added per well in a 24-well tissue-culture treated plate. […] Phospho-KIT (Tyr719) was detected using an antibody from Cell Signaling Technology (Beverly, Mass.), ECL Plus detection reagent (GE Healthcare, Piscataway, N.J.) and a Molecular Devices Storm 840 phosphorimager in fluorescence mode. […] IC50 values were calculated using Prism software (Graphpad, San Diego, Calif.).

T2 sequence (P10721 with tags, fused parts or gaps DEL560-578): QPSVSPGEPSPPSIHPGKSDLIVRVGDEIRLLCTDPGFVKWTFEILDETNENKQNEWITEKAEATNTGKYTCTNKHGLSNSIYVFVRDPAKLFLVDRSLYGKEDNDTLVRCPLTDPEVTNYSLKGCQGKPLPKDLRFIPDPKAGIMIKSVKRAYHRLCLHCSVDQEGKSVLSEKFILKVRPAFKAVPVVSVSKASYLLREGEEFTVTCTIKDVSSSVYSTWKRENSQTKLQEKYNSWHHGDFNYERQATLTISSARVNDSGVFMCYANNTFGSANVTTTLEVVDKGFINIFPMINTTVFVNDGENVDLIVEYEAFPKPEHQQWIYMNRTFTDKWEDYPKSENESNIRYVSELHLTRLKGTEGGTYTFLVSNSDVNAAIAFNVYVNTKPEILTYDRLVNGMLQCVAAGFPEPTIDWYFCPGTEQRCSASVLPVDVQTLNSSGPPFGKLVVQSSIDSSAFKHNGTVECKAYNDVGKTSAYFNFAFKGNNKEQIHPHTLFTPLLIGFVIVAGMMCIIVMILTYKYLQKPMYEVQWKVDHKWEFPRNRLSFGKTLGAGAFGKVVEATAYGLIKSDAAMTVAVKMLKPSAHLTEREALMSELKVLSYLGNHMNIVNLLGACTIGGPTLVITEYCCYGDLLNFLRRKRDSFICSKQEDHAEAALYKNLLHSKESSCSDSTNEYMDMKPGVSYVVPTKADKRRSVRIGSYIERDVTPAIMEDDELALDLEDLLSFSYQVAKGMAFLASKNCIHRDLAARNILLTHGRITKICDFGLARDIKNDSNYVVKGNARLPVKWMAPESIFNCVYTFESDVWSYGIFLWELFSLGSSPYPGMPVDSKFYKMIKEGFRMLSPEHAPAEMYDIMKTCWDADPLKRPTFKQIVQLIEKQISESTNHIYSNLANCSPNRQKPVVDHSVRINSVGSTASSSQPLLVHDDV

`CCn1c(=O)c(-c2cc(NC(=O)Nc3cccc(CN4CCN(C)CC4)c3)c(F)cc2Cl)cc2cnc(NC)cc21` [Example 79, 1-(4-chloro-5-(1-ethyl-7-(methylamino)-2-oxo-1,2-dihydro-1,6-naphthyridin-3-yl)-2-fluorophenyl)-3-(3-((4-methylpiperazin-1-yl)methyl)phenyl)urea]: the IC50 in experiment [1] is > 1 µM; in experiment [2], 0.01 to 0.1 µM.

As for `CCn1c(=O)c(-c2cc(NC(=O)Nc3cc(F)cc(CN4CCN(C)CC4)c3)c(F)cc2Cl)cc2cnc(NC)cc21` [Example 88, 1-(4-chloro-5-(1-ethyl-7-(methylamino)-2-oxo-1,2-dihydro-1,6-naphthyridin-3-yl)-2-fluorophenyl)-3-(3-fluoro-5-((4-methylpiperazin-1-yl)methyl)phenyl)urea], the IC50 in experiment [2] was 0.01 to 0.1 µM; in experiment [3], < 0.01 µM.

Consider `CCn1c(=O)c(-c2cc(NC(=O)Nc3ccccc3)c(F)cc2Cl)cc2cnc(N)cc21` [Example 21, 1-(5-(7-amino-1-ethyl-2-oxo-1,2-dihydro-1,6-naphthyridin-3-yl)-4-chloro-2-fluorophenyl)-3-phenylurea], for which the IC50 in experiment [1], in experiment [2] and in experiment [3] was < 0.01 µM in each case.
